Data from patent US20200254065A1, “LONG-ACTING GLP-2 ANALOGS” (OPKO Biologics Ltd., priority 2019, published 2020).
Square brackets hold non-standard residues; d marks the D form. Peptide text beside a SMILES is read from it. Nle = CCCC[C@H](N)C(=O)O

Experiments:
[1] = Pharmacokinetics of modified GLP-2 variants in rats; format: in vivo; details: rat, serum, peptide dose 15 mg/kg
[2] = Stability of GLP-2 analogues on incubation at 37° C. (appearance, O.D. reading, RP-HPLC); format: physicochemical; details: following 48 h incubation at 37° C.; for Stability via RP-HPLC main peak: change of main peak
Description: The GLP-2 analogues were tested for stability via appearance, O.D. reading (A.280, and A.325) and RP-HPLC (purity, and peak area) following t=0, 1 day, and 48 h incubation at 37° C.

[3] = system: small intestine; experiment: Intestine weight model in rats; format: in vivo, SD rats; details: modified peptides; two injections on days 1 & 3 at 1 mg/kg; intestine weight on day 6
Description: In the pharmacology study, the conjugates were injected subcutaneously twice, on days 1 and 3 at 1 mg/kg (peptide dose) and intestine weight was performed on day 6. In addition to the PEGylated conjugates, GLP-2-Gly2 was injected at the same dose and regimen for comparison. The average of the intestine weight of each group was compared to that of the vehicle group.
In a different study, several of the PEGylated teduglutide were injected as a single dose at 1 mg/kg and the intestine weight performed on day 6.
Pharmacology and pharmacokinetic studies were performed with the most promising GLP-2 variants to evaluate their efficacy and longevity, respectively. The intestine weight model in rats was conducted to evaluate efficacy, by measuring percent increase of the intestine weight of treated animals over the vehicle group. In this study, the peptides were injected twice, on days 1 and 3 at 1 mg/kg and the intestine weight was conducted on day 6.
PEG20-FMS-V6, PEG20-Fmoc-V6 and PEG40-FMS-V6 were injected once at 1 mg/kg dose on day 1, while group D was also injected twice on days 1 & 3 at 1 mg/kg. The intestine weight was performed on day 6.
Three different reversible PEGylated GLP-2 variants using mutated peptide #4 were injected at 2 mg/kg (peptide dose), once every 6 days for 12 days. On the 12th day the intestine was weighted and compared to the control group. PEG30-FMS-V4 was injected at 0.5 mg/kg as well to evaluate the efficacy dose range.
In addition to PEG30-FMS-V4 and PEG30-Fmoc-V4 that have been pharmacology evaluated by small intestinal weight evaluation (As shown in Example 5), four other reversible PEGylated variant 4 (“V4”) conjugates and two reversible linker-V4 conjugates were synthesized. All the above were injected to 6 normal SD rats/group once at 2 mg/kg (peptide dose), while on the 6th day, animals were scarified, and the small intestine was weighted followed by histopathology evaluation. […] Therefore, slices from three areas of the intestine (duodenum, jejunum and ilium) were stained with hematoxylin and eosin and at least 7 Crypts+Villi length/slice were measured. The averaged Villi+Crypt length of each treatment group (n=6) was compared to the vehicle group (negative control) and calculated as percentage increase over vehicle.
Additional studies were conducted to evaluate the efficacy of the V4 peptide and the reversible MAL-FMS-V4. The long acting effect of V4 and the conjugates were evaluated at Day 6 and Day 10 following treatment (Study reference 15203). All test groups (n=9) were injected SC with 2 mg/kg peptide content at Day 1. At Days 6 and 10, animals were sacrificed and the small intestine underwent histopathology evaluation (6 animals for Day 6, 3 animals for Day 10). FIGS. 12 and 13 show the pharmacology effect of different V4 conjugates and Apraglutide and Glepaglutide as measured by the percent increase of small intestine weight and crypts plus villi length over vehicle, respectively.
To further evaluate the pharmacology efficacy of V4 and Cys-FMS-V4, an experiment was performed to test their acute and prolonged effect on the small intestine (Study reference 15205). In addition, V4 and Cys-FMS-V4 were administrated as a single SC injection on Day 1 at 3 different doses (0.5, 2.0 or 8.0 mg/kg peptide content, 6 rats per group) to assess the dose dependence effect. The pharmacological effect on small intestine weight and villi plus crypts length was measured at Days 3, 7 and 14, and the results are presented in FIGS. 15 and 16. […] It should be noted that this acute response was higher for V4 compared to Cys-FMS-V4 at all 3 dose levels.

[4] = target: T1, GLP-2 receptor (Homo sapiens, UniProt O95838); experiment: GLP-2 receptor Cell Based Assay (CBA); details: Table 7
T1 sequence (O95838 1-553): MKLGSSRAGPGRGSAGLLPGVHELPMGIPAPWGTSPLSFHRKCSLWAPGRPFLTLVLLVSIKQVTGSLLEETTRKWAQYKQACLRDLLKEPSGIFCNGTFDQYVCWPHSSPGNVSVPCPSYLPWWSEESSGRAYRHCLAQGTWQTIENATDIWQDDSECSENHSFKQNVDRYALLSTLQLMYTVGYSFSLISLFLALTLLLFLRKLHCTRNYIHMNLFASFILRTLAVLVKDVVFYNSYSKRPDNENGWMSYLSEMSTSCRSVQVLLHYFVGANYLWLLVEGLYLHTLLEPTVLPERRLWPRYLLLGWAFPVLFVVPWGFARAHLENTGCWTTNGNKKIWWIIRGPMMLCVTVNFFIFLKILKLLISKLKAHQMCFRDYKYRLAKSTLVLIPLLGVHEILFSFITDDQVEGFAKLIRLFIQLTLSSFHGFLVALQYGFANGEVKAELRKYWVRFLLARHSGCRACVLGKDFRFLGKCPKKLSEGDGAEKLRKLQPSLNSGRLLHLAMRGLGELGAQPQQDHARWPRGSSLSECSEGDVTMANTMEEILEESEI
Description: Evaluation of in vitro binding affinity of the different peptides was assessed by using Cell Based Assay (CBA) in the presence of escalating doses of the different peptides.

[5] = Solubility and stability in different buffer systems, concentrations, incubation and freeze-thaw; format: physicochemical; details: Histidine and NaPi, pH 6.8 to 7.5; 1-10 mg/mL; up to 3 days at 37° C.; up to three freeze-thaw cycles

half-life [1] [h] | Solubility via appearance [2] | Stability via RP-HPLC main peak [2] | EC50 Ratio to Teduglutide [4] | CMC perspective, combining purity and solubility [5] | Compound | Increase of intestine weight over vehicle (%) [3] [%]
1.9 | V3: clear | V3: −4% | 2.5 | – | CCCC[C@H](NC(=O)[C@H](CCC(=O)O)NC(=O)[C@H](CC(=O)O)NC(=O)[C@H](CO)NC(=O)[C@H](Cc1ccccc1)NC(=O)[C@H](CO)NC(=O)CNC(=O)[C@H](CCC(=O)O)NC(=O)CNC(=O)[C@@H](N)Cc1c[nH]cn1)C(=O)N[C@H](Cc1c[nH]cn1)C(=O)N[C@H](C(=O)N[C@H](C(=O)N[C@@H](CC(C)C)C(=O)N[C@@H](CC(=O)O)C(=O)N[C@@H](CC(N)=O)C(=O)N[C@@H](CC(C)C)C(=O)N[C@@H](C)C(=O)N[C@@H](C)C(=O)N[C@@H](CCCNC(=N)N)C(=O)N[C@@H](CC(=O)O)C(=O)N[C@@H](Cc1ccccc1)C(=O)N[C@H](C(=O)N[C@@H](CC(N)=O)C(=O)N[C@@H](Cc1c[nH]c2ccccc12)C(=O)N[C@@H](CC(C)C)C(=O)N[C@H](C(=O)N[C@@H](CCC(N)=O)C(=O)N[C@H](C(=O)N[C@@H](CCCCN)C(=O)N[C@H](C(=O)N[C@H](C(=O)N[C@@H](CC(=O)O)C(N)=O)[C@@H](C)O)[C@@H](C)CC)[C@@H](C)O)[C@@H](C)CC)[C@@H](C)CC)[C@@H](C)CC)[C@@H](C)O [Variant 3] (H-HGEGSFSDE[Nle][dH]TILDNLAARDFINWLIQTKITD-NH2) | 4
12.1 | V6: clear | (~1.5%) | 3.8 | outperformed the rest of the peptides | CCCC[C@H](NC(=O)[C@H](CCC(=O)O)NC(=O)[C@H](CC(=O)O)NC(=O)[C@H](CO)NC(=O)[C@H](Cc1ccccc1)NC(=O)[C@H](CO)NC(=O)CNC(=O)[C@H](CCC(=O)O)NC(=O)CNC(=O)[C@@H](N)Cc1c[nH]cn1)C(=O)N[C@@H](CC(N)=O)C(=O)N[C@H](C(=O)N[C@H](C(=O)N[C@@H](CC(C)C)C(=O)N[C@@H](CC(=O)O)C(=O)N[C@@H](CC(C)C)C(=O)N[C@@H](CC(C)C)C(=O)N[C@@H](C)C(=O)N[C@@H](C)C(=O)N[C@@H](CCCNC(=N)N)C(=O)N[C@@H](CC(=O)O)C(=O)N[C@@H](Cc1ccccc1)C(=O)N[C@H](C(=O)N[C@@H](CC(N)=O)C(=O)N[C@@H](Cc1c[nH]c2ccccc12)C(=O)N[C@@H](CC(C)C)C(=O)N[C@H](C(=O)N[C@@H](CCC(N)=O)C(=O)N[C@H](C(=O)N[C@@H](CCCCN)C(=O)N[C@H](C(=O)N[C@H](C(=O)N[C@@H](CC(=O)O)C(=O)O)[C@@H](C)O)[C@@H](C)CC)[C@@H](C)O)[C@@H](C)CC)[C@@H](C)CC)[C@@H](C)CC)[C@@H](C)O [Variant 6] (H-HGEGSFSDE[Nle]NTILDLLAARDFINWLIQTKITD-OH) | 43
5.8 | V7: clear | (no change | 3.0 | outperformed the rest of the peptides | CCCC[C@H](NC(=O)[C@H](CCC(=O)O)NC(=O)[C@H](CC(=O)O)NC(=O)[C@H](CO)NC(=O)[C@H](Cc1ccccc1)NC(=O)[C@H](CO)NC(=O)CNC(=O)[C@H](CCC(=O)O)NC(=O)CNC(=O)[C@@H](N)Cc1c[nH]cn1)C(=O)N[C@@H](CC(N)=O)C(=O)N[C@H](C(=O)N[C@H](C(=O)N[C@@H](CC(C)C)C(=O)N[C@@H](CC(=O)O)C(=O)N[C@@H](Cc1ccc(O)cc1)C(=O)N[C@@H](CC(C)C)C(=O)N[C@@H](C)C(=O)N[C@@H](C)C(=O)N[C@@H](CCCNC(=N)N)C(=O)N[C@@H](CC(=O)O)C(=O)N[C@@H](Cc1ccccc1)C(=O)N[C@H](C(=O)N[C@@H](CC(N)=O)C(=O)N[C@@H](Cc1c[nH]c2ccccc12)C(=O)N[C@@H](CC(C)C)C(=O)N[C@H](C(=O)N[C@@H](CCC(N)=O)C(=O)N[C@H](C(=O)N[C@@H](CCCCN)C(=O)N[C@H](C(=O)N[C@H](C(=O)N[C@@H](CC(=O)O)C(=O)O)[C@@H](C)O)[C@@H](C)CC)[C@@H](C)O)[C@@H](C)CC)[C@@H](C)CC)[C@@H](C)CC)[C@@H](C)O [Variant 7] (H-HGEGSFSDE[Nle]NTILDYLAARDFINWLIQTKITD-OH) | 12
6.5 | V5: clear | – | 2.4 | – | CCCC[C@H](NC(=O)[C@H](CCC(=O)O)NC(=O)[C@H](CC(=O)O)NC(=O)[C@H](CO)NC(=O)[C@H](Cc1ccccc1)NC(=O)[C@H](CO)NC(=O)CNC(=O)[C@H](CCC(=O)O)NC(=O)CNC(=O)[C@@H](N)Cc1c[nH]cn1)C(=O)N[C@@H](CC(N)=O)C(=O)N[C@H](C(=O)N[C@H](C(=O)N[C@@H](CC(C)C)C(=O)N[C@@H](CC(=O)O)C(=O)N[C@@H](Cc1ccc(O)cc1)C(=O)N[C@@H](CC(C)C)C(=O)N[C@@H](C)C(=O)N[C@@H](C)C(=O)N[C@@H](CCCNC(=N)N)C(=O)N[C@@H](CC(=O)O)C(=O)N[C@@H](Cc1ccccc1)C(=O)N[C@H](C(=O)N[C@@H](CC(N)=O)C(=O)N[C@@H](Cc1c[nH]c2ccccc12)C(=O)N[C@@H](CC(C)C)C(=O)N[C@H](C(=O)N[C@@H](CCC(N)=O)C(=O)N[C@H](C(=O)N[C@@H](CCCCN)C(=O)N[C@H](C(=O)N[C@H](C(=O)N[C@@H](CC(=O)O)C(N)=O)[C@@H](C)O)[C@@H](C)CC)[C@@H](C)O)[C@@H](C)CC)[C@@H](C)CC)[C@@H](C)CC)[C@@H](C)O [Variant 5] (H-HGEGSFSDE[Nle]NTILDYLAARDFINWLIQTKITD-NH2) | 10
